Values after ≈ are worked out from the molar mass of the structure shown.
What was measured:
[1] = cited from earlier work
physchem = conditions: for solubility: aqueous with cosolvent or surfactant or cyclodextrin
Procedure: The teachings of this application were utilized in solubilizing capsaicin in a high purity PS 80 obtained from Croda Inc.
• 1. 10 grams of PS 80 are added to a 50 ml “Pyrex” glass vial. • 2. 2 grams of Trans-Capsaicin are added to the PS 80 in Step 1. • 3. The mixture from Step 2 is heated to ˜55° C. to dissolve the Trans-Capsaicin and form the Trans-Capsaicin/PS80 concentrate.

arthritic knee joints = test: Clinical study: corticosteroid pretreatment and pain due to intra-articular capsaicin injection; type: in vivo, human
Procedure: This study examined the administration of a corticosteroid as an adjunctive agent prior to the administration of capsaicin to attenuate the burning and stinging effect resulting for the intra-articular injection of capsaicin into the knee joint.
Tests were conducted to evaluate the effectiveness of a corticosteroid injection into a site prior to injection of a capsaicin formulation. Subjects with arthritic knee joints were selected and treated as follows: • The knee joint to be treated was cleaned with Betadine or other suitable antiseptic agent. • A […].
Procedures and resulting pain level experienced by the injection of subjects injected with a 0.2 mg dose level of the capsaicin formulation as a function of elapsed time are summarized in Tables IX to XV. […] A description of the 6 knees treated with the capsaicin injections follows.

peripheral nociceptors = conditions: cited from earlier work
[2] = in vivo; cited from earlier work
[3] = knee #1, patient #1, Depo-Medrol, no Lidocaine, 0.2 mg capsaicin
[4] = knee #2, patient #2, Depo-Medrol, Lidocaine, 0.2 mg capsaicin
[5] = knee #3, patient #3, Depo-Medrol, Lidocaine, 0.2 mg capsaicin
[6] = knee #4, patient #4 left, Depo-Medrol, gel pack, Lidocaine, 0.2 mg capsaicin
[7] = knee #5, patient #4 right, no corticosteroid, Lidocaine, 0.2 mg capsaicin
[8] = knee #6, patient #1 right, Depo-Medrol, cold pack, Lidocaine, 0.2 mg capsaicin

**Q.** With `CCOC(=O)c1ccc(N)cc1` [Benzocaine] as the compound, how does the “Aqueous Soluble” value [1] read?
**A.** sparingly

**Q.** And the “Oil Soluble” value [1]?
**A.** soluble

**Q.** Which “capsaicin concentration achieved in PS 80” value (physchem) does the source give for `COc1cc(CNC(=O)CCCC/C=C/C(C)C)ccc1O` [Capsaicin] here?
**A.** 200 mg/mL

**Q.** What about the “capsaicin solubility with PEG-400 compared to PS80” value (physchem) of the same compound?
**A.** did not achieve the capsaicin solubility levels

**Q.** What about the “supersaturation of Capsaicin/PS 80 solution” value (physchem) of the same compound?
**A.** not supersaturated

**Q.** What about the “dissolution of capsaicin without pre-formed concentrate” value (physchem; PS 80 and capsaicin added to water, then heated to ~70° C.-90° C.) of the same compound?
**A.** only a fraction of the capsaicin dissolving

**Q.** And the solubility (physchem; aqueous capsaicin solubility level)?
**A.** 20000 µg/mL (≈ 65.5 mM)

**Q.** And the solubility (physchem; aqueous capsaicin solubility level, 2 ml capsaicin/PS 80 concentrate added to 98 grams of ~70° C. water, cooled to room temperature)?
**A.** 4000 µg/mL (≈ 13.1 mM)

**Q.** What about the solubility (physchem; increase of aqueous solubility of capsaicin) of the same compound?
**A.** ~1000 µg/mL (≈ 3.27 mM)

**Q.** And the “pain status of treated knees as of the date of filing” value (arthritic knee joints; all patients, 0.2 mg capsaicin intra-articular)?
**A.** remain pain free

**Q.** And the duration pain free (arthritic knee joints; in one case)?
**A.** over 3 weeks

**Q.** What about the “duration of extreme pain following capsaicin injection” value (arthritic knee joints; [3]) of the same compound?
**A.** about 1 hour

**Q.** And the “relief of arthritic pain symptoms” value (arthritic knee joints; [3])?
**A.** significant relief of their arthritic pain symptoms

**Q.** And the “time of procedure until relief of arthritic pain symptoms” value (arthritic knee joints; [3])?
**A.** ~80 min

**Q.** What about the “relief of arthritic pain symptoms” value (arthritic knee joints; [4]) of the same compound?
**A.** complete relief of their osteoarthritic pain symptoms

**Q.** And the “time until procedure completed and pain relief” value (arthritic knee joints; [4])?
**A.** about 30 minutes

**Q.** What about the “relief of arthritic pain symptoms” value (arthritic knee joints; [5]) of the same compound?
**A.** complete relief for their painful arthritic symptoms

**Q.** And the “time until procedure concluded and pain relief” value (arthritic knee joints; [5])?
**A.** about 23 minutes

**Q.** What about the “relief of arthritic pain symptoms” value (arthritic knee joints; [6]) of the same compound?
**A.** complete relief of their painful severe osteoarthritis pain

**Q.** And the “time pain level remained at a mild level before complete relief” value (arthritic knee joints; [6])?
**A.** about 13 minutes

**Q.** And the “relief of arthritic pain symptoms” value (arthritic knee joints; [7])?
**A.** alleviated their painful arthritic symptoms

**Q.** And the “time until arthritic symptoms alleviated” value (arthritic knee joints; [7])?
**A.** ~25 min

**Q.** What about the “relief of arthritic pain symptoms” value (arthritic knee joints; [8]) of the same compound?
**A.** complete relief of their painful arthritic symptoms

**Q.** And the “time until procedure concluded and pain relief” value (arthritic knee joints; [8])?
**A.** about 17 minutes

**Q.** What about the “Aqueous Soluble” value [1] of the same compound?
**A.** insoluble

**Q.** What about the “Oil Soluble” value [1] of the same compound?
**A.** soluble

**Q.** What about the “duration of subsequent mild pain” value (peripheral nociceptors; injectable capsaicin formulations, after the intense B&S pain) of the same compound?
**A.** 1 to 2 h

**Q.** And the “duration of intense burning and stinging (B&S) pain” value (peripheral nociceptors; injectable capsaicin formulations)?
**A.** up to 1 hour

**Q.** What about the “persistence of spontaneous burning pain and hyperalgesia” value (peripheral nociceptors; upon capsaicin injection in clinical trials) of the same compound?
**A.** up to 60 minutes

**Q.** Which results are given for `CCO` [Ethyl Alcohol]?
**A.** Aqueous Soluble [1]: miscible; Oil Soluble [1]: soluble

**Q.** With `CC1CCC(C(C)C)C(O)C1` (stereo not drawn) [Menthol] as the compound, how does the “Aqueous Soluble” value [1] read?
**A.** slightly

**Q.** And the “Oil Soluble” value [1]?
**A.** soluble

**Q.** Which results are given for `CCCNC(C)C(=O)Nc1ccccc1C` (stereo not drawn) [Prilocaine]?
**A.** Aqueous Soluble [1]: sparingly; Oil Soluble [1]: soluble

**Q.** For Polyethylene glycol [PEG], which systemic absorption [2] is on record?
**A.** less than 0.5%
